From ChEMBL document CHEMBL3994614, “Novel flavonolignan hybrid antioxidants: From enzymatic preparation to molecular rationalization” (Eur J Med Chem, 2017)
Calls of active or inactive are those of the source. The calls are words filed in the database; no cut-off is given here.

Columns and labels:
[1] = Antioxidant activity assessed as trolox equivalent of ABTS radical scavenging activity at 100 uM measured at >= 5 mins; format: functional
[2] = Antiradical activity assessed as gallic acid equivalents of Foline-Ciocalteu reagent reducing capacity at 1 mM preincubated for 5 mins followed by Na2CO3 addition measured after 90 mins in presence of L-ascorbic acid
[3] = Antioxidant activity assessed as trolox equivalent of ABTS radical scavenging activity at 100 uM measured at >= 5 mins in presence of L-ascorbic acid; format: functional
[4] = tested on: HepG2; assay: Cytotoxicity against human HepG2 cells assessed as reduction in cell viability up to 10 uM after 4 hrs by MTT assay; format: cell-based; conditions: hepg2, 4 h
[5] = Antioxidant activity assessed as DPPH radical scavenging activity after 30 mins in presence of L-ascorbic acid by spectrophotometric method; format: functional
[6] = tested on: HepG2; assay: Cytoprotective activity against tert-butyl hydroperoxide-induced decrease in cell viability in human HepG2 cells at 5 uM pretreated for 1 hr followed by co-treatment with tert-butyl hydroperoxide for 3 hrs in presence of L-ascorbic acid by MTT assay; format: functional, cell-based
[7] = Antioxidant activity assessed as DPPH radical scavenging activity after 30 mins by spectrophotometric method; format: functional
[8] = tested on: Liver; assay: Antioxidant activity against tert-butyl hydroperoxide-induced lipoperoxidation in rat liver microsomal membranes preincubated for 10 mins followed by tert-butyl hydroperoxide addition measured after 60 mins by TBARS assay; format: functional, cell membranes, Microsomal Membrane
[9] = Antiradical activity assessed as gallic acid equivalents of Foline-Ciocalteu reagent reducing capacity at 1 mM preincubated for 5 mins followed by Na2CO3 addition measured after 90 mins
[10] = Electro-oxidation activity at glassy carbon electrode in pH 5 acetate buffer at 50 uM by square-wave voltammetry
[11] = tested on: HepG2; assay: Cytoprotective activity against tert-butyl hydroperoxide-induced toxicity in human HepG2 cells assessed as cell viability at 5 uM pretreated for 1 hr followed by co-treatment with tert-butyl hydroperoxide for 3 hrs by MTT assay (reference value: 22%); format: functional
[12] = tested on: HepG2; assay: Cytoprotective activity against tert-butyl hydroperoxide-induced toxicity in human HepG2 cells assessed as cell viability at 5 uM pretreated for 1 hr followed by tert-butyl hydroperoxide addition for 3 hrs by MTT assay (reference value: 16%); format: functional
[13] = tested on: Liver; assay: Antioxidant activity against tert-butyl hydroperoxide-induced lipoperoxidation in rat liver microsomal membranes preincubated for 10 mins followed by tert-butyl hydroperoxide addition measured after 60 mins in presence of L-ascorbic acid by TBARS assay; format: functional, cell membranes, Microsomal Membrane
[14] = Aqueous solubility of the compound in buffer solution; format: physicochemical
[15] = Electro-oxidation activity at glassy carbon electrode in pH 2 to 12 at 50 uM by square-wave voltammetry
[16] = tested on: Liver; assay: Antioxidant activity against tert-butyl hydroperoxide-induced lipoperoxidation in rat liver microsomal membranes at 1 mM preincubated for 10 mins followed by tert-butyl hydroperoxide addition measured after 60 mins by TBARS assay relative to control; format: functional, cell membranes; conditions: Microsomal Membrane
[17] = Antioxidant activity assessed as DPPH radical scavenging activity after 30 mins in presence of silybin by spectrophotometric method; format: functional
[18] = Antioxidant activity assessed as trolox equivalent of ABTS radical scavenging activity at 100 uM measured at >= 5 mins in presence of silybin; format: functional
[19] = Antiradical activity assessed as gallic acid equivalents of Foline-Ciocalteu reagent reducing capacity at 1 mM preincubated for 5 mins followed by Na2CO3 addition measured after 90 mins in presence of silybin
[20] = tested on: HepG2; assay: Cytoprotective activity against tert-butyl hydroperoxide-induced decrease in cell viability in human HepG2 cells at 5 uM pretreated for 1 hr followed by co-treatment with tert-butyl hydroperoxide for 3 hrs in presence of silybin by MTT assay; format: functional, cell-based
[21] = tested on: Liver; assay: Antioxidant activity against tert-butyl hydroperoxide-induced lipoperoxidation in rat liver microsomal membranes preincubated for 10 mins followed by tert-butyl hydroperoxide addition measured after 60 mins in presence of silybin by TBARS assay; format: functional, cell membranes, Microsomal Membrane
[22] = tested on: Liver; assay: Antioxidant activity against tert-butyl hydroperoxide-induced lipoperoxidation in rat liver microsomal membranes at 50 uM preincubated for 10 mins followed by tert-butyl hydroperoxide addition measured after 60 mins by TBARS assay relative to control; format: functional, cell membranes; conditions: Microsomal Membrane

| Compound | IC50 [7] | IC50 [8] | Activity [1] | Activity [4] | Activity [9] | Activity [10] | other results |
| --- | --- | --- | --- | --- | --- | --- | --- |
| Cc1c(C)c2c(c(C)c1O)CCC(C)(CO)O2 (stereo not given) | 3.58 µM | – | – | – | – | – | – |
| COc1cc([C@H]2Oc3cc([C@H]4Oc5cc(O)cc(O)c5C(=O)[C@@H]4O)ccc3O[C@@H]2COC(=O)CCCCCCCCCCC(=O)OC[C@H](O)[C@H]2OC(=O)C(O)=C2O)ccc1O | 20.6 µM | 30.2 µM | 1.32 equiv | Non-Toxic | 0.65 equiv | Active | Activity [15]: Active; viability at 5 µM ([11]; read-out: Activity): 43%; viability at 5 µM ([12]; read-out: Activity): 27% |
| C=COC(=O)CCCCCCCCCCC(=O)OC=C | – | – | – | – | – | inactive | – |

Further molecules by falling IC50 [7], results first:

| IC50 [7] | IC50 [8] | Compound | Activity [1] | Activity [4] | Activity [9] | Activity [10] | other results |
| --- | --- | --- | --- | --- | --- | --- | --- |
| 372 µM | 111 µM | C=COC(=O)CCCCCCCCCCC(=O)OC[C@H]1Oc2ccc([C@H]3Oc4cc(O)cc(O)c4C(=O)[C@@H]3O)cc2O[C@@H]1c1ccc(O)c(OC)c1 | 0.93 equiv | – | 0.15 equiv | inactive | solubility [14]: Insoluble |
| 253 µM | > 1000 µM | COc1cc([C@H]2Oc3cc([C@H]4Oc5cc(O)cc(O)c5C(=O)[C@@H]4O)ccc3O[C@@H]2COC(=O)CCCCCCCCCCC(=O)OCCc2ccc(O)cc2)ccc1O | 0.33 equiv | – | 0.17 equiv | inactive | inhibition [16]: 17% |
| 244 µM | 77.1 µM | COc1cc(C2Oc3cc([C@H]4Oc5cc(O)cc(O)c5C(=O)[C@@H]4O)ccc3OC2CO)ccc1O (stereo not given in full) [SILIBININ] | 0.78 equiv | Non-Toxic | 0.92 equiv | inactive | Activity [2]: 0.25 equiv; Activity [3]: 0.42 equiv; IC50 [5]: 2.94 µM; Activity [6]: inactive; Activity [11]: inactive; Activity [12]: inactive; IC50 [13]: 56.5 µM |
| 3.5 µM | 72.9 µM | COc1cc([C@H]2Oc3cc([C@H]4Oc5cc(O)cc(O)c5C(=O)[C@@H]4O)ccc3O[C@@H]2COC(=O)CCCCCCCCCCC(=O)OCC2(C)CCc3c(C)c(O)c(C)c(C)c3O2)ccc1O (stereo not given in full) | 0.24 equiv | – | 0.15 equiv | inactive | – |
| 2.76 µM | > 1000 µM | O=C1O[C@H]([C@@H](O)CO)C(O)=C1O [ASCORBIC ACID] | 0.57 equiv | Non-Toxic | 0.51 equiv | – | IC50 [17]: 2.94 µM; Activity [18]: 0.42 equiv; Activity [19]: 0.25 equiv; Activity [20]: inactive; IC50 [21]: 56.5 µM; inhibition [16]: 13%; inhibition [22]: 139%; Activity [11]: inactive; Activity [12]: inactive |
